EC50 data for 29 molecules are collected here from patent US9156796B2, “Benzoimidazole-carboxylic acid amide derivatives as APJ receptor modulators” (SANOFI, priority 2013, dated 2015).

The target of one assay is T1, human apelin receptor (Homo sapiens, UniProt P35414).
T1 construct: expressed in transfected cells
T1 sequence (P35414 1-380): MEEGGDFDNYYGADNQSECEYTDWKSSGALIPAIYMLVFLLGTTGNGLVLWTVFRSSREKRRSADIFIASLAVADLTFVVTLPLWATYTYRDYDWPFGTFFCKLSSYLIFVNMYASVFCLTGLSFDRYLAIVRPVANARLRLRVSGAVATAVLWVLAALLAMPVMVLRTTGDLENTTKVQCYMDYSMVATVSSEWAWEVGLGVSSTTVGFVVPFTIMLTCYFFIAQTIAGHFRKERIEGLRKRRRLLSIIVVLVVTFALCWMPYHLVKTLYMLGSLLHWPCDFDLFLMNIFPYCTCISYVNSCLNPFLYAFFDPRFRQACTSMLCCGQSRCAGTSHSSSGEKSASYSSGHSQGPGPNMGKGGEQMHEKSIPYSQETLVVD
The assay can be described thus: Determination of agonism on the human apelin receptor by a calcium fluorescence assay (FLIPR). In kind it is cell-based. Conditions: EC50 (APJ agonism), HEK293 cells stably transfected with human apelin receptor and Giaq protein, Fluo-4 calcium fluorescence. The method, boiled down: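 HEK293 cells stably co-expressing human apelin receptor and promiscuous Giaq, loaded 1 h at 37 °C with Fluo-4 (4 μM) in probenecid-containing Hepes buffer, pH 7.4. Compounds, at least 7 concentrations in triplicate, added in FLIPR Tetra; peak calcium fluorescence normalized to 1 μM apelin-13 as 100% to derive EC50.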
Take `CCC(CC)n1c(Cc2cccs2)nc2cc(C(=O)N[C@H](CO)C(C)C)ccc21` [Example 190, 1-(1-Ethyl-propyl)-2-thiophen-2-ylmethyl-1H-benzoimidazole-5-carboxylic acid ((S)-1-hydroxymethyl-2-methyl-propyl)-amide]: the EC50 – broadly, the concentration that produces a half-maximal response – was 6280 nM.

The same assay, now with this note: HEK293 cells stably transfected with human apelin receptor and Giaq protein, Fluo-4 calcium fluorescence, read-out: EC50 (APJ agonism).
Turning to `CCC(CC)n1c(Cc2ccco2)nc2cc(C(=O)N[C@@H](CC3CCCCC3)C(=O)O)ccc21` [Example 8, (S)-3-Cyclohexyl-2-{[1-(1-ethyl-propyl)-2-furan-2-ylmethyl-1H-benzoimidazole-5-carbonyl]-amino}-propionic acid], the EC50 amounted to 107 nM.
Still for that read-out and setting: for `CCC(CC)n1c(Cc2cccs2)nc2cc(C(=O)N[C@@H](CC(C)C)C(=O)N3CCCC(OC)C3)ccc21` (stereo partly drawn) [Example 376, 1-(1-Ethyl-propyl)-2-thiophen-2-ylmethyl-1H-benzoimidazole-5-carboxylic acid [(S)-1-(3-methoxy-piperidine-1-carbonyl)-3-methyl-butyl]-amide] the value was 1830 nM.
As to `CC(C)C[C@H](NC(=O)c1ccc2c(c1)nc(Cc1cccs1)n2C1CCCC1)C(=O)O` [Example 110, (S)-2-[(1-Cyclopentyl-2-thiophen-2-ylmethyl-1H-benzoimidazole-5-carbonyl)-amino]-4-methyl-pentanoic acid], the EC50 came out at 2030 nM.
Still for that read-out and setting: in the case of `CC(C)C[C@@H](CC(=O)O)NC(=O)c1ccc2c(c1)nc(Cc1ccco1)n2C1CCCCC1C` (stereo partly drawn) [Example 99, (S)-3-{[2-Furan-2-ylmethyl-1-(2-methyl-cyclohexyl)-1H-benzoimidazole-5-carbonyl]-amino}-5-methyl-hexanoic acid] it was 46 nM; in that of `CCC(CC)n1c(Cc2cccs2)nc2cc(C(=O)NC(CC3CCC(C)(C)CC3)C(=O)O)ccc21` (single isomer, unassigned) [Example 444], 3910 nM; in that of `CCC(CC)n1c(Cc2cccs2)nc2cc(C(=O)N[C@@H](CC(C)C)C(=O)NCCCOCC3CCCO3)ccc21` (stereo partly drawn) [Example 388, 1-(1-Ethyl-propyl)-2-thiophen-2-ylmethyl-1H-benzoimidazole-5-carboxylic acid {(S)-3-methyl-1-[3-(tetrahydro-furan-2-ylmethoxy)-propylcarbamoyl]-butyl}-amide], 1590 nM.
Still for that read-out and setting: for `C[C@@H]1CCCC[C@H]1n1c(Cc2cccs2)nc2cc(C(=O)NC(CC(=O)O)CC3CCCCC3)ccc21` (single isomer, unassigned) [Example 457] the value was 1460 nM; for `CCC(CC)n1c(Cc2cccs2)nc2cc(C(=O)NC(CC(C)C)c3nnc(C)o3)ccc21` (centres unmarked) [Example 481, 1-(1-Ethyl-propyl)-2-thiophen-2-ylmethyl-1H-benzoimidazole-5-carboxylic acid [3-methyl-1-(5-methyl-[1,3,4]oxadiazol-2-yl)-butyl]-amide], 3480 nM; for `CC(C)C[C@H](NC(=O)c1ccc2c(c1)nc(Cc1cccs1)n2-c1ccccc1)C(=O)O` [Example 132, (S)-4-Methyl-2-[(1-phenyl-2-thiophen-2-ylmethyl-1H-benzoimidazole-5-carbonyl)-amino]-pentanoic acid], 700 nM.
The same measure, in the same setting: for `CCC(CC)n1c(Cc2cccs2)nc2cc(C(=O)NC(CC3CCCCCC3)C(=O)O)ccc21` (single isomer, unassigned) [Example 449] the value was 853 nM.
Turning to `CCC(CC)n1c(Cc2cccs2)nc2cc(C(=O)N[C@@H](CC(C)C)C(=O)NCCc3nnn[nH]3)ccc21` [Example 400, 1-(1-Ethyl-propyl)-2-thiophen-2-ylmethyl-1H-benzoimidazole-5-carboxylic acid {(S)-3-methyl-1-[2-(1H-tetrazol-5-yl)-ethylcarbamoyl]-butyl}-amide], the EC50 came to 70 nM.
Same read-out and setting: in the case of `CC(C)C[C@H](NC(=O)c1ccc2c(c1)nc(Cc1cccs1)n2CC(C)C)C(=O)O` [Example 127, (S)-2-[(1-Isobutyl-2-thiophen-2-ylmethyl-1H-benzoimidazole-5-carbonyl)-amino]-4-methyl-pentanoic acid] it was 15000 nM; in that of `C[C@@H]1CCCC[C@H]1n1c(Cc2cccs2)nc2cc(C(=O)N[C@H](CC(=O)O)CC3CCCC3)ccc21` [Example 61, (S)-4-Cyclopentyl-3-{[1-((1R,2R)-2-methyl-cyclohexyl)-2-thiophen-2-ylmethyl-1H-benzoimidazole-5-carbonyl]-amino}-butyric acid], 75 nM.
In the case of `CCC(CC)n1c(Cc2cccs2)nc2cc(C(=O)N[C@@H](CC(C)C)C(=O)NC3CCN(CC(C)C)CC3)ccc21` [Example 337, 1-(1-Ethyl-propyl)-2-thiophen-2-ylmethyl-1H-benzoimidazole-5-carboxylic acid [(S)-1-(1-isobutyl-piperidin-4-ylcarbamoyl)-3-methyl-butyl]-amide], the EC50 was found to be 331 nM.
In the case of `CCC(CC)n1c(Cc2cccs2)nc2cc(C(=O)N[C@@H](CC(C)C)C(=O)NCc3ccccc3)ccc21` [Example 220, 1-(1-Ethyl-propyl)-2-thiophen-2-ylmethyl-1H-benzoimidazole-5-carboxylic acid ((S)-1-benzylcarbamoyl-3-methyl-butyl)-amide], the EC50 was determined as 2860 nM.
Same read-out and setting: for `CCCCC(CO)NC(=O)c1ccc2c(c1)nc(Cc1cccs1)n2C(CC)CC` (centres unmarked) [Example 197, 1-(1-Ethyl-propyl)-2-thiophen-2-ylmethyl-1H-benzoimidazole-5-carboxylic acid (1-hydroxymethyl-pentyl)-amide] the value was 1040 nM; for `CC(C)C[C@@H](CCC(=O)O)NC(=O)c1ccc2c(c1)nc(Cc1cccs1)n2[C@@H]1CCCC[C@H]1C` [Example 70, (R)-6-Methyl-4-{[1-((1R,2R)-2-methyl-cyclohexyl)-2-thiophen-2-ylmethyl-1H-benzoimidazole-5-carbonyl]-amino}-heptanoic acid], 179 nM; for `CCC(CC)n1c(Cc2cccs2)nc2cc(C(=O)N[C@@H](CC(C)C)C(=O)N3CCC(N(C)CCN(C)C)CC3)ccc21` [Example 310, 1-(1-Ethyl-propyl)-2-thiophen-2-ylmethyl-1H-benzoimidazole-5-carboxylic acid ((S)-1-{4-[(2-dimethylamino-ethyl)-methyl-amino]-piperidine-1-carbonyl}-3-methyl-butyl)-amide], 162 nM.
Still for that read-out and setting: for `CCC(CC)n1c(CC2CCCC2)nc2cc(C(=O)N[C@H](CO)CC(C)C)ccc21` [Example 175, 2-Cyclopentylmethyl-1-(1-ethyl-propyl)-1H-benzoimidazole-5-carboxylic acid ((S)-1-hydroxymethyl-3-methyl-butyl)-amide] the value was 501 nM.
The same measure, in the same setting: in the case of `CC(C)C[C@H](NC(=O)c1ccc2c(c1)nc(Cc1cccs1)n2C1CCCC1C)C(=O)O` (single isomer, unassigned) [Example 431] it was 3470 nM; in that of `CCC(CC)n1c(Cc2cccs2)nc2cc(C(=O)N[C@@H](CC(C)C)C(=O)NCc3ccco3)ccc21` [Example 221, 1-(1-Ethyl-propyl)-2-thiophen-2-ylmethyl-1H-benzoimidazole-5-carboxylic acid {(S)-1-[(furan-2-ylmethyl)-carbamoyl]-3-methyl-butyl}-amide], 1830 nM.
In the case of `CCC(CC)n1c(Cc2cccs2)nc2cc(C(=O)N[C@@H](CC(C)C)C(=O)NCC3CN(Cc4ccccc4)CCO3)ccc21` (stereo partly drawn) [Example 330, 1-(1-Ethyl-propyl)-2-thiophen-2-ylmethyl-1H-benzoimidazole-5-carboxylic acid {(S)-1-[(4-benzyl-morpholin-2-ylmethyl)-carbamoyl]-3-methyl-butyl}-amide], the EC50 is 2480 nM.
On the same count and under the same terms, in the case of `CCC(CC)n1c(Cc2ccccc2)nc2cc(C(=O)N[C@@H](CC(C)C)C(=O)O)ccc21` [Example 116, (S)-2-{[2-Benzyl-1-(1-ethyl-propyl)-1H-benzoimidazole-5-carbonyl]-amino}-4-methyl-pentanoic acid] it was 6710 nM.
The same measure, in the same setting: in the case of `CCC(CC)n1c(Cc2cccs2)nc2cc(C(=O)N[C@H](Cc3noc(-c4ccccc4)n3)CC(C)C)ccc21` [Example 474, 1-(1-Ethyl-propyl)-2-thiophen-2-ylmethyl-1H-benzoimidazole-5-carboxylic acid [(S)-3-methyl-1-(5-phenyl-[1,2,4]oxadiazol-3-ylmethyl)-butyl]-amide] it was 34500 nM.
As to `CCC(CC)n1c(Cc2cccs2)nc2cc(C(=O)N[C@@H](CCC(C)C)C(=O)O)ccc21` [Example 130, (S)-2-{[1-(1-Ethyl-propyl)-2-thiophen-2-ylmethyl-1H-benzoimidazole-5-carbonyl]-amino}-5-methyl-hexanoic acid], the EC50 came to 293 nM.
The same measure, in the same setting: for `CC(C)C[C@@H](CC(=O)O)NC(=O)c1ccc2c(c1)nc(Cc1cccs1)n2C1CCCCC1C` (single isomer, unassigned) [Example 436] the value was 24 nM.
Still for that read-out and setting: for `CCC(CC)n1c(Cc2cccs2)nc2cc(C(=O)N[C@@H](CC(C)C)C(=O)Nc3ccccc3OC)ccc21` [Example 255, 1-(1-Ethyl-propyl)-2-thiophen-2-ylmethyl-1H-benzoimidazole-5-carboxylic acid [(S)-1-(2-methoxy-phenylcarbamoyl)-3-methyl-butyl]-amide] the value was 6670 nM; for `CC(C)Cn1c(CC2CCCCC2)nc2cc(C(=O)N[C@@H](CC3CCCCC3)C(=O)O)ccc21` [Example 134, (S)-3-Cyclohexyl-2-[(2-cyclohexylmethyl-1-isobutyl-1H-benzoimidazole-5-carbonyl)-amino]-propionic acid], 7150 nM.
